Measurements published in PubChem BioAssay AID1259407 (Chemical Carcinogenesis Research Information System (CCRIS), 2018).
Activity calls are given as the source filed them. The rule behind the calls is not given here.

Test system: CCRIS mutagenicity, Ames/micronucleus/aberration tests
Assay: CCRIS mutagenicity studies
[1] = Test System: AMES SALMONELLA TYPHIMURIUM, Strain/Indicator: TA100, Metabolic Activation: RAT, LIVER, S-9, AROCLOR 1254, Method: STANDARD PLATE
[2] = Test System: AMES SALMONELLA TYPHIMURIUM, Strain/Indicator: TA98, Metabolic Activation: NONE, Method: PREINCUBATION
[3] = Test System: AMES SALMONELLA TYPHIMURIUM, Strain/Indicator: TA100, Metabolic Activation: NONE, Method: PREINCUBATION
[4] = Test System: AMES SALMONELLA TYPHIMURIUM, Strain/Indicator: TA100, Metabolic Activation: NONE, Method: STANDARD PLATE

Compound: Cc1c2ccccc2c(CO)c2ccc3ccccc3c12
- mutagenic call (Test System: AMES SALMONELLA TYPHIMURIUM, Strain/Indicator: TA98, Metabolic Activation: HUMAN, LIVER, CYTOSOL, PAPS, Method: PREINCUBATION): active; positive
- mutagenic call (Test System: AMES SALMONELLA TYPHIMURIUM, Strain/Indicator: TA100, Metabolic Activation: RAT, LIVER, PARENCHYMAL CELLS (CRYOPRESERVED), Method: PREINCUBATION): inactive; negative
- mutagenic call (Test System: AMES SALMONELLA TYPHIMURIUM, Strain/Indicator: TA100, Metabolic Activation: RAT, LIVER, PARENCHYMAL CELLS (FRESHLY ISOLATED), Method: PREINCUBATION): active; positive
- mutagenic call [1]: active; positive
- mutagenic call (Test System: CHINESE HAMSTER V-79, Strain/Indicator: V-79/6-THIOGUANINE, Metabolic Activation: CELL-MEDIATED, Method: STANDARD PLATE): active; positive
- mutagenic call (Test System: CHINESE HAMSTER V-79, Strain/Indicator: V-79/OUABAIN, Metabolic Activation: CELL-MEDIATED, Method: STANDARD PLATE): active; positive

Compound: O=c1nc(NNCCO)ccn1[C@@H]1O[C@H](CO)[C@@H](O)[C@H]1O
- mutagenic call (Test System: CHINESE HAMSTER V-79, Strain/Indicator: V-79/6-THIOGUANINE, Metabolic Activation: NONE, Method: REPLATING): active; positive

Compound: CNc1ccc2ncccc2c1N
- mutagenic call [2]: inactive; negative
- mutagenic call (Test System: AMES SALMONELLA TYPHIMURIUM, Strain/Indicator: TA98, Metabolic Activation: RAT, LIVER, S-9, AROCLOR 1254, Method: PREINCUBATION): inactive; negative
- mutagenic call [3]: inactive; negative
- mutagenic call (Test System: AMES SALMONELLA TYPHIMURIUM, Strain/Indicator: TA100, Metabolic Activation: RAT, LIVER, S-9, AROCLOR 1254, Method: PREINCUBATION): inactive; negative

Compound: CC(=O)Nc1ccc2c(c1OC(C)=O)Cc1ccccc1-2
- mutagenic call (Test System: AMES SALMONELLA TYPHIMURIUM, Strain/Indicator: TA98, Metabolic Activation: RAT, LIVER, S-9, AROCLOR 1254, Method: STANDARD PLATE): inactive; negative

Compound: COc1c(C=O)c(O)cc2c1C(=O)c1ccccc1C2=O
- mutagenic call [2]: inactive; negative
- mutagenic call (Test System: AMES SALMONELLA TYPHIMURIUM, Strain/Indicator: TA98, Metabolic Activation: RAT, LIVER, S-9, PCB, Method: PREINCUBATION): inactive; negative
- mutagenic call [3]: inactive; negative
- mutagenic call (Test System: AMES SALMONELLA TYPHIMURIUM, Strain/Indicator: TA100, Metabolic Activation: RAT, LIVER, S-9, PCB, Method: PREINCUBATION): inactive; negative

Compound: NN1C(=O)c2ccccc2C1=O
- mutagenic call (Test System: AMES SALMONELLA TYPHIMURIUM, Strain/Indicator: TA97A, Metabolic Activation: NONE, Method: STANDARD PLATE): inactive; negative
- mutagenic call (Test System: AMES SALMONELLA TYPHIMURIUM, Strain/Indicator: TA97A, Metabolic Activation: RAT, LIVER, S-9, AROCLOR 1254, Method: STANDARD PLATE): inactive; negative
- mutagenic call [4]: inactive; negative
- mutagenic call [1]: inactive; negative
- mutagenic call (Test System: AMES SALMONELLA TYPHIMURIUM, Strain/Indicator: TA102, Metabolic Activation: NONE, Method: STANDARD PLATE): inactive; negative
- mutagenic call (Test System: AMES SALMONELLA TYPHIMURIUM, Strain/Indicator: TA102, Metabolic Activation: RAT, LIVER, S-9, AROCLOR 1254, Method: STANDARD PLATE): inactive; negative
- mutagenic call (Test System: AMES SALMONELLA TYPHIMURIUM, Strain/Indicator: TA104, Metabolic Activation: NONE, Method: STANDARD PLATE): inactive; negative
- mutagenic call (Test System: AMES SALMONELLA TYPHIMURIUM, Strain/Indicator: TA104, Metabolic Activation: RAT, LIVER, S-9, AROCLOR 1254, Method: STANDARD PLATE): inactive; negative

Compound: NCCS
- mutagenic call (End Point: IN VIVO MICRONUCLEUS, Test System: BONE MARROW POLYCHROMATIC ERYTHROCYTES, Species: MOUSE, Strain/Sex: SWISS/FEMALE, Route: IP): inactive; negative
- mutagenic call [3]: inactive; negative
- mutagenic call (Test System: Ames Salmonella typhimurium, Strain/Indicator: TA98, Metabolic Activation: None, Method: Preincubation): inactive; negative
- mutagenic call (Test System: Ames Salmonella typhimurium, Strain/Indicator: TA98, Metabolic Activation: Rat, Liver, S9, Sodium phenobarbital and 5,6-benzoflavone (10%), Method: Preincubation): inactive; negative
- mutagenic call (Test System: Ames Salmonella typhimurium, Strain/Indicator: TA100, Metabolic Activation: None, Method: Preincubation): inactive; negative
- mutagenic call (Test System: Ames Salmonella typhimurium, Strain/Indicator: TA100, Metabolic Activation: Rat, Liver, S9, Sodium phenobarbital and 5,6-benzoflavone (10%), Method: Preincubation): inactive; negative
- mutagenic call (Test System: Ames Salmonella typhimurium, Strain/Indicator: TA1535, Metabolic Activation: None, Method: Preincubation): inactive; negative
- mutagenic call (Test System: Ames Salmonella typhimurium, Strain/Indicator: TA1535, Metabolic Activation: Rat, Liver, S9, Sodium phenobarbital and 5,6-benzoflavone (10%), Method: Preincubation): inactive; negative
- mutagenic call (Test System: Ames Salmonella typhimurium, Strain/Indicator: TA1537, Metabolic Activation: None, Method: Preincubation): inactive; negative
- mutagenic call (Test System: Ames Salmonella typhimurium, Strain/Indicator: TA1537, Metabolic Activation: Rat, Liver, S9, Sodium phenobarbital and 5,6-benzoflavone (10%), Method: Preincubation): inactive; negative
- mutagenic call (Test System: E. coli, Strain/Indicator: WP2uvrA/pKM101, Metabolic Activation: Rat, Liver, S9, Sodium phenobarbital and 5,6-benzoflavone (10%), Method: Preincubation): inactive; negative

Compound: CN(C)CCNC(=O)c1cccc2ncc(-c3ccccc3)nc12
- mutagenic call (Test System: AMES SALMONELLA TYPHIMURIUM, Strain/Indicator: TA1537, Metabolic Activation: NONE, Method: STANDARD PLATE): active; positive

Compound: O=C(NCc1ccccc1)C(Cl)c1ccccc1 (centres undefined)
- mutagenic call (Test System: AMES SALMONELLA TYPHIMURIUM, Strain/Indicator: TA100, Metabolic Activation: MOUSE, LIVER, S-9, AROCLOR 1254, Method: STANDARD PLATE): inactive; negative
- mutagenic call [4]: active; positive

Compound: CCC(C)Br (centres undefined)
- mutagenic call (Test System: AMES SALMONELLA TYPHIMURIUM, Strain/Indicator: TA100, Metabolic Activation: NONE, Method: DESICCATOR): active; positive
- mutagenic call (Test System: AMES SALMONELLA TYPHIMURIUM, Strain/Indicator: TA100, Metabolic Activation: RAT, LIVER, S-9, AROCLOR 1254, Method: DESICCATOR): active; positive
- mutagenic call (Test System: AMES SALMONELLA TYPHIMURIUM, Strain/Indicator: TA1535, Metabolic Activation: NONE, Method: DESICCATOR): active; positive
- mutagenic call (Test System: AMES SALMONELLA TYPHIMURIUM, Strain/Indicator: TA1535, Metabolic Activation: RAT, LIVER, S-9, AROCLOR 1254, Method: DESICCATOR): active; positive

Compound: [Cl][Cu][Cl]
- mutagenic call (Test System: E. COLI, Strain/Indicator: WP2 UVRA, Metabolic Activation: NONE, Method: SPOT TEST): active; positive
- mutagenic call (Test System: E. COLI, Strain/Indicator: WP2 UVRA, Metabolic Activation: NONE, Method: STANDARD PLATE): active; positive
